In US20250026778A1 (TIUMBIO CO., LTD., priority 2021, published 2025) one finds inhibition data, which are given here for 17 molecules.

T1 sequence (P17931 whole entry): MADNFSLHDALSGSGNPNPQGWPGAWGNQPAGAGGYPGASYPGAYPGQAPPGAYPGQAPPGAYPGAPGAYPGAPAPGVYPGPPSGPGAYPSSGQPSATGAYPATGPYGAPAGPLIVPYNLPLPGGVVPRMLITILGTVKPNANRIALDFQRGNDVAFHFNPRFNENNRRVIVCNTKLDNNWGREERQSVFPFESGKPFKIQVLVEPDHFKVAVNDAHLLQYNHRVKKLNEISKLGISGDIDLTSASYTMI

The first assay has as its target T1, his-galectin-3 (Homo sapiens, UniProt P17931).
T1 construct: purchased Abcam
As to the kind of experiment: TR-FRET assay (in vitro galectin-3 binding inhibitory activity test). To be noted: Table 1; compound at 20 μM; 60 nM his-galectin-3, 15 nM biotin-ASF; read-out: % Inhibitory activity (at 20 μM). Summed up:
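Compound is premixed with his-galectin-3 (60 nM final), then biotin-ASF (15 nM), Tb anti-His antibody (2 nM) and streptavidin-d2 (20 nM) are added. After at least 3.5 hours at RT in HEPES/NaCl buffer with Tween 20 and BSA, TR-FRET is read at 615/665 nm. DMSO serves as the uninhibited control, ASF omission as background.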
For `COc1ccc2c(c1)CCC1(O2)O[C@H](CO)[C@H](O)[C@H](n2cc(-c3cc(F)c(F)c(F)c3)nn2)[C@H]1O` (single isomer, unassigned) [Compound A11, (3′R,4'S,5′R,6′R)-6′-(hydroxymethyl)-6-methoxy-4′-(4-(3,4,5-trifluorophenyl)-1H-1,2,3-triazol-1-yl)-3′,4′,5′,6′-tetrahydrospiro[chromane-2,2′-pyran]-3′,5′-diol], the inhibition at 20 µM fell in the range of 25 to 50%. In the case of `OC[C@H]1O[C@@]2(CCCO2)[C@H](OCc2cccc(O)c2)[C@@H](n2cc(-c3cc(F)c(F)c(F)c3)nn2)[C@H]1O` [Compound A38, (5S,7R,8R,9S,10R)-10-((3-hydroxybenzyl)oxy)-7-(hydroxymethyl)-9-(4-(3,4,5-trifluorophenyl)-1H-1,2,3-triazol-1-yl)-1,6-dioxaspiro[4.5]decan-8-ol], the inhibition at 20 µM lay within 25 to 50%. Turning to `O=C(Cc1ccc(Oc2ccccc2)cc1)N[C@@H]1CCO[C@]12O[C@H](CO)[C@H](O)[C@H](n1cc(-c3cc(F)c(F)c(F)c3)nn1)[C@H]2O` [Compound A148, N-((4R,5S,7R,8R,9S,10R)-8,10-dihydroxy-7-(hydroxymethyl)-9-(4-(3,4,5-trifluorophenyl)-1H-1,2,3-triazol-1-yl)-1,6-dioxaspiro[4.5]decan-4-yl)-2-(4-phenoxyphenyl)acetamide], the inhibition at 20 µM was 25 to 50%. The same measure, in the same setting: the value for `O=C(Cc1ccc2ccccc2c1)N[C@@H]1CCO[C@]12O[C@H](CO)[C@H](O)[C@H](n1cc(-c3cc(F)c(F)c(F)c3)nn1)[C@H]2O` [Compound A115, N-((4R,5S,7R,8R,9S,10R)-8,10-dihydroxy-7-(hydroxymethyl)-9-(4-(3,4,5-trifluorophenyl)-1H-1,2,3-triazol-1-yl)-1,6-dioxaspiro[4.5]decan-4-yl)-2-(naphthalen-2-yl)acetamide] was 50 to 75%; that for `O=C(N[C@@H]1CCO[C@]12O[C@H](CO)[C@H](O)[C@H](n1cc(-c3cc(F)c(F)c(F)c3)nn1)[C@H]2O)c1cc2ccccc2o1` [Compound A123, N-((4R,5S,7R,8R,9S,10R)-8,10-dihydroxy-7-(hydroxymethyl)-9-(4-(3,4,5-trifluorophenyl)-1H-1,2,3-triazol-1-yl)-1,6-dioxaspiro[4.5]decan-4-yl)benzofuran-2-carboxamide] was 50 to 75%; that for `OC[C@H]1O[C@]2(OCC[C@H]2NCc2cccnc2)[C@H](O)[C@@H](n2cc(-c3cc(F)c(F)c(F)c3)nn2)[C@H]1O` [Compound A85] was above 75%. With `O=C(N[C@@H]1CCO[C@]12O[C@H](CO)[C@H](O)[C@H](n1cc(-c3cc(F)c(F)c(F)c3)nn1)[C@H]2O)C(F)(F)c1ccccc1` [Compound A147, N-((4R,5S,7R,8R,9S,10R)-8,10-dihydroxy-7-(hydroxymethyl)-9-(4-(3,4,5-trifluorophenyl)-1H-1,2,3-triazol-1-yl)-1,6-dioxaspiro[4.5]decan-4-yl)-2,2-difluoro-2-phenylacetamide], the inhibition at 20 µM was below 25%.

Take `O=C1CCCC2(N1)O[C@H](CO)[C@H](O)[C@H](n1cc(-c3cc(F)c(F)c(F)c3)nn1)[C@H]2O` (single isomer, unassigned) [Compound A89]: the inhibition at 20 µM is below 25%. As for `O=C(O[C@@H]1[C@@H](n2cc(-c3cc(F)c(F)c(F)c3)nn2)[C@@H](O)[C@@H](CO)O[C@@]12CCCO2)c1cccc(C(F)(F)F)c1` [Compound A73, (5S,7R,8R,9S,10R)-8-hydroxy-7-(hydroxymethyl)-9-(4-(3,4,5-trifluorophenyl)-1H-1,2,3-triazol-1-yl)-1,6-dioxaspiro[4.5]decan-10-yl 3-(trifluoromethyl)benzoate], the inhibition at 20 µM is below 25%.

The same assay, now with this note: Table 2; compound at 20 μM; 60 nM his-galectin-3, 15 nM biotin-ASF; read-out: % Inhibitory activity (at 20 μM).
Take `O=C(c1cncs1)N1CCC[C@]2(C1)O[C@H](CO)[C@H](O)[C@H](n1cc(-c3cc(F)c(F)c(F)c3)nn1)[C@H]2O` [Compound A190, ((2R,3R,4S,5R,6R)-3,5-dihydroxy-2-(hydroxymethyl)-4-(4-(3,4,5-trifluorophenyl)-1H-1,2,3-triazol-1-yl)-1-oxa-8-azaspiro[5.5]undecan-8-yl)(thiazol-5-yl)methanone]: the inhibition at 20 µM was below 25%.

With `O=C(N[C@@H]1CCO[C@]12O[C@H](CO)[C@H](O)[C@H](n1cc(-c3cc(F)c(F)c(F)c3)nn1)[C@H]2O)c1ccc(Br)c2ncccc12` [Compound A213, 8-bromo-N-((4R,5S,7R,8R,9S,10R)-8,10-dihydroxy-7-(hydroxymethyl)-9-(4-(3,4,5-trifluorophenyl)-1H-1,2,3-triazol-1-yl)-1,6-dioxaspiro[4.5]decan-4-yl)quinoline-5-carboxamide], the inhibition at 20 µM lay in the range of 50 to 75%. Regarding `O=C(N[C@@H]1CCO[C@]12O[C@H](CO)[C@H](O)[C@H](n1cc(-c3cc(F)c(F)c(F)c3)nn1)[C@H]2O)c1cc2cccc(Cl)c2s1` [Compound A159, 7-chloro-N-((4R,5S,7R,8R,9S,10R)-8,10-dihydroxy-7-(hydroxymethyl)-9-(4-(3,4,5-trifluorophenyl)-1H-1,2,3-triazol-1-yl)-1,6-dioxaspiro[4.5]decan-4-yl)benzo[b]thiophene-2-carboxamide], the inhibition at 20 µM lay in the range of 50 to 75%.

For the molecule `O=C(N[C@@H]1CCO[C@]12O[C@H](CO)[C@H](O)[C@H](n1cc(-c3cc(F)c(F)c(F)c3)nn1)[C@H]2O)c1noc2cc(Cl)ccc12` [Compound A199, 6-chloro-N-((4R,5S,7R,8R,9S,10R)-8,10-dihydroxy-7-(hydroxymethyl)-9-(4-(3,4,5-trifluorophenyl)-1H-1,2,3-triazol-1-yl)-1,6-dioxaspiro[4.5]decan-4-yl)benzo[d]isoxazole-3-carboxamide], the inhibition at 20 µM fell in the range of 25 to 50%. Regarding `CC1CO[C@@]2(C1)O[C@H](CO)[C@H](O)[C@H](n1cc(-c3cc(F)c(F)c(F)c3)nn1)[C@H]2O` (stereo partly drawn) [Compound A214, (5S,7R,8R,9S,10R)-7-(hydroxymethyl)-3-methyl-9-(4-(3,4,5-trifluorophenyl)-1H-1,2,3-triazol-1-yl)-1,6-dioxaspiro[4.5]decane-8,10-diol], the inhibition at 20 µM is 50 to 75%. Same read-out and setting: then `O=C(N[C@@H]1CCO[C@]12O[C@H](CO)[C@H](O)[C@H](n1cc(-c3cc(F)c(F)c(F)c3)nn1)[C@H]2O)c1cccc2ccc(Br)cc12` [Compound A211, 7-bromo-N-((4R,5S,7R,8R,9S,10R)-8,10-dihydroxy-7-(hydroxymethyl)-9-(4-(3,4,5-trifluorophenyl)-1H-1,2,3-triazol-1-yl)-1,6-dioxaspiro[4.5]decan-4-yl)-1-naphthamide], with above 75%; and `O=C(N[C@@H]1CCO[C@]12O[C@H](CO)[C@H](O)[C@H](n1cc(-c3cc(F)c(F)c(F)c3)nn1)[C@H]2O)c1cnc2sccn12` [Compound A200, N-((4R,5S,7R,8R,9S,10R)-8,10-dihydroxy-7-(hydroxymethyl)-9-(4-(3,4,5-trifluorophenyl)-1H-1,2,3-triazol-1-yl)-1,6-dioxaspiro[4.5]decan-4-yl)imidazo[2,1-b]thiazole-5-carboxamide], with 50 to 75%.

The same assay, now with this note: Table 3, found values; compound at 20 μM; 60 nM his-galectin-3, 15 nM biotin-ASF; read-out: % Inhibitory activity (at 20 μM).
As for `O=C(N[C@@H]1CCO[C@]12O[C@H](CO)[C@H](O)[C@H](n1cc(-c3cc(F)c(F)c(F)c3)nn1)[C@H]2O)c1cnc2sccn12` [Compound A200, N-((4R,5S,7R,8R,9S,10R)-8,10-dihydroxy-7-(hydroxymethyl)-9-(4-(3,4,5-trifluorophenyl)-1H-1,2,3-triazol-1-yl)-1,6-dioxaspiro[4.5]decan-4-yl)imidazo[2,1-b]thiazole-5-carboxamide], the inhibition at 20 µM came out at 63.3%.

Still in this assay, the particulars now being: read-out: % Inhibitory activity (at 20 μM), Table 1; compound at 20 μM; 60 nM his-galectin-3, 15 nM biotin-ASF.
`O=C(Cc1cccc(Cl)c1)N[C@@H]1CCO[C@]12O[C@H](CO)[C@H](O)[C@H](n1cc(-c3cc(F)c(F)c(F)c3)nn1)[C@H]2O` [Compound A106, 2-(3-chlorophenyl)-N-((4R,5S,7R,8R,9S,10R)-8,10-dihydroxy-7-(hydroxymethyl)-9-(4-(3,4,5-trifluorophenyl)-1H-1,2,3-triazol-1-yl)-1,6-dioxaspiro[4.5]decan-4-yl)acetamide]: the inhibition at 20 µM is 50 to 75%.
